target: T1, human TLR7 (Homo sapiens, UniProt Q9NYK1); assay: TLR7 inhibition reporter assay (HEK-Blue SEAP); format: cell-based; conditions: HEK-Blue cells overexpressing human TLR7, gardiquimod 7.5 μM, 22 hour incubation
T1 construct: host or cells: HEK-Blue cells
T1 sequence (Q9NYK1 27-1049): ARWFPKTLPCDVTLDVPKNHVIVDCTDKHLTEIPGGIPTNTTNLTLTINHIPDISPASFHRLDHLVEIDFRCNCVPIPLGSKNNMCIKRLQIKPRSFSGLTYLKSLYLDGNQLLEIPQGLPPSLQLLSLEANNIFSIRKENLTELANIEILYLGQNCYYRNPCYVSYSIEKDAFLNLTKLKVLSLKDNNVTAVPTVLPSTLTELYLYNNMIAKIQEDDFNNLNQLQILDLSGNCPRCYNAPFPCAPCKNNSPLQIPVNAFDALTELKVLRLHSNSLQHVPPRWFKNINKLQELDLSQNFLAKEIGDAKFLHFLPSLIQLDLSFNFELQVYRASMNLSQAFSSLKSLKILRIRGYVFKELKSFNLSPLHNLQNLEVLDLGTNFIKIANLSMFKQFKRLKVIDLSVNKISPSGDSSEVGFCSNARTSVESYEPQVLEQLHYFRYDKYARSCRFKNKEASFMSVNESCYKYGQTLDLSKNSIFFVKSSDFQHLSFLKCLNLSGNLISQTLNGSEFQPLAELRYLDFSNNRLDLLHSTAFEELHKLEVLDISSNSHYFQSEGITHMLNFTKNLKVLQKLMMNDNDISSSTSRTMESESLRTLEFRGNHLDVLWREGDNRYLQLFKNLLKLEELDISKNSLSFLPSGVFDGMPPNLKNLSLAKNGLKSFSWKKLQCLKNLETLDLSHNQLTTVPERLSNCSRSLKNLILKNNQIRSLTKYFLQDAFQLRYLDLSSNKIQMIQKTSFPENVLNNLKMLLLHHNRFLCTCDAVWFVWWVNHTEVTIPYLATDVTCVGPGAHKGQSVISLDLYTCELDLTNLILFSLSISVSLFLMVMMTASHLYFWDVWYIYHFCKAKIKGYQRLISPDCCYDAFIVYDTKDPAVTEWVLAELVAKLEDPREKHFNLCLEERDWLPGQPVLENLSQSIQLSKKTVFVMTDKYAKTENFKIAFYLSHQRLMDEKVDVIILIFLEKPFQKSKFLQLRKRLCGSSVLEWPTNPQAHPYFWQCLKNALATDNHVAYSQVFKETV
How it was run: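 In this cell reporter format, test compounds at 0.05 nM-50 μM final incubate 22 h with seeded cells (TLR7 15000, TLR8 20,000 per well). SEAP read-out by HEK-Blue Detection medium yields % inhibition relative to agonist/DMSO and known-inhibitor wells.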

Row | IC50 [nM] | SMILES
1 | 37.7 | Cc1cc2c(cc1-c1cc(C)c3ncnn3c1)[nH]c(=O)n2[C@H]1CC[C@H](N(C)C)CC1 [Example 23, 1-((1r,4r)-4-(dimethylamino)cyclohexyl)-6-methyl-5-(8-methyl-[1,2,4]triazolo[1,5-a]pyridin-6-yl)-1,3-dihydro-2H-benzo[d]imidazol-2-one]
2 | 28.2 | COc1cc(-c2cc3[nH]c(=O)n([C@@H]4CCCNC4)c3cc2C(F)(F)F)cn2ncnc12 [110 F, (R)-5-(8-methoxy-[1,2,4]triazolo[1,5-a]pyridin-6-yl)-1-(piperidin-3-yl)-6-(trifluoromethyl)-1,3-dihydro-2H-benzo[d]imidazol-2-one]
3 | 0.7 | COc1cc(-c2cc3[nH]c(=O)n(C4CCC(N5CCC(OC)C5)CC4)c3cc2C(C)C)cn2ncnc12 (centres unmarked) [Example 284, 6-isopropyl-5-(8-methoxy-[1,2,4]triazolo[1,5-a]pyridin-6-yl)-1-(4-(3-methoxypyrrolidin-1-yl)cyclohexyl)-1,3-dihydro-2H-benzo[d]imidazol-2-one]
4 | 3.54 | COc1cc(-c2cc3[nH]c(=O)n(C4CCC(N5CCSCC5)CC4)c3cc2C(C)C)cn2ncnc12 (centres unmarked) [Example 251, 6-isopropyl-5-(8-methoxy-[1,2,4]triazolo[1,5-a]pyridin-6-yl)-1-(4-thiomorpholinocyclohexyl)-1,3-dihydro-2H-benzo[d]imidazol-2-one]
5 | 211 | Cc1cc2c(cc1-c1cc(C)c3ncnn3c1)[nH]c(=O)n2[C@@H]1CCCN(CCC(F)(F)F)C1 [Example 29, (R)-6-methyl-5-(8-methyl-[1,2,4]triazolo[1,5-a]pyridin-6-yl)-1-(1-(3,3,3-trifluoropropyl)piperidin-3-yl)-1,3-dihydro-2H-benzo[d]imidazol-2-one]
6 | 41.8 | COc1cc(-c2cc3[nH]c(=O)n(C4CCC(N5CCC(F)(F)C5)CC4)c3cc2C(C)C)cn2ncnc12 (single isomer, unassigned) [Example 295, 1-(4-(3,3-difluoropyrrolidin-1-yl)cyclohexyl)-6-isopropyl-5-(8-methoxy-[1,2,4]triazolo[1,5-a]pyridin-6-yl)-1,3-dihydro-2H-benzo[d]imidazol-2-one]
7 | 53.2 | COc1cc(-c2cc3[nH]c(=O)n([C@H]4CC[C@@H](N)CC4)c3cc2C)cn2ncnc12 [1 EG, 1-((1s,4s)-4-aminocyclohexyl)-5-(8-methoxy-[1,2,4]triazolo[1,5-a]pyridin-6-yl)-6-methyl-1,3-dihydro-2H-benzo[d]imidazol-2-one]
8 | 20.2 | Cc1cc2c(cc1-c1cc(C)c3ncnn3c1)[nH]c(=O)n2[C@H]1CC[C@H](NC(C)C)CC1 [Example 25, 1-((1r,4s)-4-(isopropylamino)cyclohexyl)-6-methyl-5-(8-methyl-[1,2,4]triazolo[1,5-a]pyridin-6-yl)-1,3-dihydro-2H-benzo[d]imidazol-2-one]
9 | 1.53 | COc1cc(-c2cc3[nH]c(=O)n(C4CCC(N5CC[C@H](F)C5)CC4)c3cc2C(C)C)cn2ncnc12 (stereo partly drawn) [Example 287, (S)-1-(4-(3-fluoropyrrolidin-1-yl)cyclohexyl)-6-isopropyl-5-(8-methoxy-[1,2,4]triazolo[1,5-a]pyridin-6-yl)-1,3-dihydro-2H-benzo[d]imidazol-2-one]
10 | 344 | Cc1cc2c(cc1-c1cc(C)c3ncnn3c1)[nH]c(=O)n2C1CCNCC1 [1 EA, 6-methyl-5-(8-methyl-[1,2,4]triazolo[1,5-a]pyridin-6-yl)-1-(piperidin-4-yl)-1,3-dihydro-2H-benzo[d]imidazol-2-one]
11 | 18.1 | Cc1cc2c(cc1-c1cc(C)c3ncnn3c1)[nH]c(=O)n2[C@@H]1CCCNC1 [1 ED, (R)-6-methyl-5-(8-methyl-[1,2,4]triazolo[1,5-a]pyridin-6-yl)-1-(piperidin-3-yl)-1,3-dihydro-2H-benzo[d]imidazol-2-one]
12 | 1.12 | COc1cc(-c2cc3[nH]c(=O)n(C4CCC(N(C)CCC(F)(F)F)CC4)c3cc2C(C)C)cn2ncnc12 (single isomer, unassigned) [Example 248, 6-isopropyl-5-(8-methoxy-[1,2,4]triazolo[1,5-a]pyridin-6-yl)-1-(4-(methyl(3,3,3-trifluoropropyl)amino)cyclohexyl)-1,3-dihydro-2H-benzo[d]imidazol-2-one]

The remaining lines, values behind:

Row | SMILES | IC50 [nM]
13 | Cc1cc2c(cc1-c1cc(C)c3ncnn3c1)[nH]c(=O)n2[C@H]1CC[C@@H](NC2CCOCC2)CC1 [Example 30, 6-methyl-5-(8-methyl-[1,2,4]triazolo[1,5-a]pyridin-6-yl)-1-((1s,4s)-4-((tetrahydro-2H-pyran-4-yl)amino)cyclohexyl)-1,3-dihydro-2H-benzo[d]imidazol-2-one] | 8.23
14 | Cc1c(-c2cc3[nH]c(=O)n(C4CCC(N5CCC6(CC5)COC6)CC4)c3cc2C(C)C)cn2ncnc2c1C (single isomer, unassigned) [Example 282, 1-(4-(2-oxa-7-azaspiro[3.5]nonan-7-yl)cyclohexyl)-5-(7,8-dimethyl-[1,2,4]triazolo[1,5-a]pyridin-6-yl)-6-isopropyl-1,3-dihydro-2H-benzo[d]imidazol-2-one] | 10.1
15 | Cc1c(-c2cc3[nH]c(=O)n(C4CCC(N5CCC6(CC5)COC6)CC4)c3cc2C(C)C)cn2ncnc2c1C (single isomer, unassigned) [Example 283, 1-(4-(2-oxa-7-azaspiro[3.5]nonan-7-yl)cyclohexyl)-5-(7,8-dimethyl-[1,2,4]triazolo[1,5-a]pyridin-6-yl)-6-isopropyl-1,3-dihydro-2H-benzo[d]imidazol-2-one] | 1.82
16 | COc1c(C)c(-c2cc3[nH]c(=O)n(C4CCC(N5CC6(COC6)C5)CC4)c3cc2C(C)C)cn2ncnc12 (single isomer, unassigned) [Example 269, 1-(4-(2-oxa-6-azaspiro[3.3]heptan-6-yl)cyclohexyl)-6-isopropyl-5-(8-methoxy-7-methyl-[1,2,4]triazolo[1,5-a]pyridin-6-yl)-1,3-dihydro-2H-benzo[d]imidazol-2-one] | 5.73
17 | Cc1c(-c2cc3[nH]c(=O)n(C4CCC(N5CCC(F)(F)CC5)CC4)c3cc2C(C)C)cn2ncnc2c1C (single isomer, unassigned) [Example 276, 1-(4-(4,4-difluoropiperidin-1-yl)cyclohexyl)-5-(7,8-dimethyl-[1,2,4]triazolo[1,5-a]pyridin-6-yl)-6-isopropyl-1,3-dihydro-2H-benzo[d]imidazol-2-one] | 61.7
18 | Cc1c(-c2cc3[nH]c(=O)n(C4CCC(N5CCCOCC5)CC4)c3cc2C(C)C)cn2ncnc2c1C (centres unmarked) [Example 271, 1-(4-(1,4-oxazepan-4-yl)cyclohexyl)-5-(7,8-dimethyl-[1,2,4]triazolo[1,5-a]pyridin-6-yl)-6-isopropyl-1,3-dihydro-2H-benzo[d]imidazol-2-one] | 6.06
19 | Cc1c(-c2cc3[nH]c(=O)n(C4CCC(N5CC(F)C5)CC4)c3cc2C(C)C)cn2ncnc2c1C (centres unmarked) [Example 279, 5-(7,8-dimethyl-[1,2,4]triazolo[1,5-a]pyridin-6-yl)-1-(4-(3-fluoroazetidin-1-yl)cyclohexyl)-6-isopropyl-1,3-dihydro-2H-benzo[d]imidazol-2-one] | 2.89
20 | COc1cc(-c2cc3[nH]c(=O)n(C4CCC(N5CCC(S(C)(=O)=O)C5)CC4)c3cc2C(C)C)cn2ncnc12 (single isomer, unassigned) [Example 288, 6-isopropyl-5-(8-methoxy-[1,2,4]triazolo[1,5-a]pyridin-6-yl)-1-(4-(3-(methylsulfonyl)pyrrolidin-1-yl)cyclohexyl)-1,3-dihydro-2H-benzo[d]imidazol-2-one] | 5.09
21 | COCCNC1CCC(n2c(=O)[nH]c3cc(-c4cn5ncnc5c(OC)c4C)c(C(C)C)cc32)CC1 (centres unmarked) [Example 257] | 6.97
22 | Cc1cc(-c2ccc3c(c2)[nH]c(=O)n3C2CCNCC2)cn2ncnc12 [1 EB, 5-(8-methyl-[1,2,4]triazolo[1,5-a]pyridin-6-yl)-1-(piperidin-4-yl)-1,3-dihydro-2H-benzo[d]imidazol-2-one] | 1160
23 | Cc1c(-c2cc3[nH]c(=O)n(C4CCC(N5CCC(F)(F)CC5)CC4)c3cc2C(C)C)cn2ncnc2c1C (single isomer, unassigned) [Example 275, 1-(4-(4,4-difluoropiperidin-1-yl)cyclohexyl)-5-(7,8-dimethyl-[1,2,4]triazolo[1,5-a]pyridin-6-yl)-6-isopropyl-1,3-dihydro-2H-benzo[d]imidazol-2-one] | 13.7

Reference: US12187723B2 (BRISTOL-MYERS SQUIBB COMPANY, priority 2019, dated 2025)
